The supplement of paper PMC10307832

Experiments:
Test in all cases: relative viability (nuclei count vs DMSO), 5 days (fraction); higher = more cells survive
[1] = system: BEN
In short: (§1)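 Nuclei were stained with Hoechst during a one-step fixation (final 0.05% Triton X-100, 1% formaldehyde, 1 ug/ml Hoechst) carried out 5 days after dosing, then counted on 4× images. The cells, lung cancer lines in 1536-well plates, had been dosed by pin tool the day after seeding with one drug alone or a fixed anchor-drug dose plus five library-drug doses (not always all listed) in √10 steps. Relative viability is the nuclei count in treated wells divided by that in vehicle wells, and each value is the median of duplicate plates.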

[2] = system: EMC-BAC-2
In short: as §1

[3] = system: HCC-15
In short: as §1

[4] = system: HCC-44
In short: as §1

[5] = system: HOP-62
In short: as §1

[6] = system: LC-2-ad
In short: as §1

[7] = system: LU99A
In short: as §1

[8] = system: NCI-H1395
In short: as §1

[9] = system: NCI-H1437
In short: as §1

[10] = system: NCI-H1563
In short: as §1

[11] = system: NCI-H1734
In short: as §1

[12] = system: NCI-H1755
In short: as §1

[13] = system: NCI-H1915
In short: as §1

[14] = system: NCI-H2023
In short: as §1

[15] = system: NCI-H2126
In short: as §1

[16] = system: NCI-H2170
In short: as §1

[17] = system: NCI-H3122
In short: as §1

[18] = system: NCI-H358
In short: as §1

[19] = system: NCI-H650
In short: as §1

[20] = system: NCI-H727
In short: as §1

[21] = system: SW 1573
In short: as §1

Work on `CN1CCN(CCOc2cc(OC3CCOCC3)c3c(Nc4c(Cl)ccc5c4OCO5)ncnc3c2)CC1` [Saracatinib] + CS(=O)(=O)CCNCc1ccc(-c2ccc3ncnc(Nc4ccc(OCc5cccc(F)c5)c(Cl)c4)c3c2)o1 [Lapatinib] (partner 2 µM) yielded a relative viability ([1]; first compound 0.02 µM) of 0.745, a relative viability ([1]; first compound 0.2 µM) of 0.541 and a relative viability ([1]; first compound 0.6325 µM) of 0.911. It also gave a relative viability ([1]; first compound 2 µM) of 0.489, a relative viability ([2]; first compound 0.02 µM) of 0.91 and a relative viability ([2]; first compound 0.2 µM) of 0.792. For the same compound, the relative viability ([2]; first compound 0.6325 µM) was 0.945, the relative viability ([2]; first compound 2 µM) was 0.761 and the relative viability ([3]; first compound 0.02 µM) was 0.859. For the same compound, the relative viability ([3]; first compound 0.2 µM) was 0.828, the relative viability ([3]; first compound 0.6325 µM) was 0.961 and the relative viability ([3]; first compound 2 µM) was 0.854. It also gave a relative viability ([4]; first compound 0.02 µM) of 1.01, a relative viability ([4]; first compound 0.2 µM) of 0.902 and a relative viability ([4]; first compound 0.6325 µM) of 1.17. The relative viability ([4]; first compound 2 µM) was 1.15, the relative viability ([5]; first compound 0.02 µM) was 1.21 and the relative viability ([5]; first compound 0.2 µM) was 0.816. The relative viability ([5]; first compound 0.6325 µM) was 1.05, the relative viability ([5]; first compound 2 µM) was 1.21 and the relative viability ([6]; first compound 0.02 µM) was 1.06. It also gave a relative viability ([6]; first compound 0.6325 µM) of 0.998, a relative viability ([6]; first compound 2 µM) of 0.761 and a relative viability ([7]; first compound 0.02 µM) of 0.963. It also gave a relative viability ([7]; first compound 0.2 µM) of 0.748, a relative viability ([7]; first compound 0.6325 µM) of 0.969 and a relative viability ([7]; first compound 2 µM) of 0.743. For the same compound, the relative viability ([8]; first compound 0.02 µM) was 0.911, the relative viability ([8]; first compound 0.2 µM) was 0.921 and the relative viability ([8]; first compound 0.6325 µM) was 0.953. The relative viability ([8]; first compound 2 µM) was 0.733, the relative viability ([9]; first compound 0.02 µM) was 0.884 and the relative viability ([9]; first compound 0.2 µM) was 0.841. It also gave a relative viability ([9]; first compound 0.6325 µM) of 0.783, a relative viability ([9]; first compound 2 µM) of 0.757 and a relative viability ([10]; first compound 0.02 µM) of 0.941. For the same compound, the relative viability ([10]; first compound 0.2 µM) was 0.778, the relative viability ([10]; first compound 0.6325 µM) was 0.831 and the relative viability ([10]; first compound 2 µM) was 0.775. It also gave a relative viability ([11]; first compound 0.02 µM) of 1.11, a relative viability ([11]; first compound 0.6325 µM) of 0.999 and a relative viability ([11]; first compound 2 µM) of 0.777. It also gave a relative viability ([12]; first compound 0.02 µM) of 1.01, a relative viability ([12]; first compound 0.2 µM) of 0.816 and a relative viability ([12]; first compound 0.6325 µM) of 1.1. It also gave a relative viability ([12]; first compound 2 µM) of 0.965, a relative viability ([13]; first compound 0.02 µM) of 0.987 and a relative viability ([13]; first compound 0.2 µM) of 0.917. For the same compound, the relative viability ([13]; first compound 0.6325 µM) was 0.955, the relative viability ([13]; first compound 2 µM) was 0.819 and the relative viability ([14]; first compound 0.02 µM) was 1.33. For the same compound, the relative viability ([14]; first compound 0.2 µM) was 0.701, the relative viability ([14]; first compound 0.6325 µM) was 0.998 and the relative viability ([14]; first compound 2 µM) was 0.698. The relative viability ([15]; first compound 0.02 µM) was 0.813, the relative viability ([15]; first compound 0.2 µM) was 0.686 and the relative viability ([15]; first compound 0.6325 µM) was 0.732. For the same compound, the relative viability ([15]; first compound 2 µM) was 0.626, the relative viability ([16]; first compound 0.02 µM) was 0.28 and the relative viability ([16]; first compound 0.2 µM) was 0.246. It also gave a relative viability ([16]; first compound 0.6325 µM) of 0.293, a relative viability ([16]; first compound 2 µM) of 0.231 and a relative viability ([17]; first compound 0.02 µM) of 1.03. For the same compound, the relative viability ([17]; first compound 0.6325 µM) was 0.894, the relative viability ([17]; first compound 2 µM) was 0.781 and the relative viability ([18]; first compound 0.02 µM) was 0.471. It also gave a relative viability ([18]; first compound 0.2 µM) of 0.535, a relative viability ([18]; first compound 0.6325 µM) of 0.418 and a relative viability ([18]; first compound 2 µM) of 0.384. The relative viability ([19]; first compound 0.02 µM) was 1, the relative viability ([19]; first compound 0.2 µM) was 0.85 and the relative viability ([19]; first compound 0.6325 µM) was 0.928. It also gave a relative viability ([19]; first compound 2 µM) of 1.17, a relative viability ([20]; first compound 0.02 µM) of 0.688 and a relative viability ([20]; first compound 0.2 µM) of 0.647. The relative viability ([20]; first compound 0.6325 µM) was 0.78, the relative viability ([20]; first compound 2 µM) was 0.587 and the relative viability ([21]; first compound 0.02 µM) was 1.27. For the same compound, the relative viability ([21]; first compound 0.2 µM) was 1.1, the relative viability ([21]; first compound 0.6325 µM) was 1.16 and the relative viability ([21]; first compound 2 µM) was 1.14.
